Experimental data from ChEMBL document CHEMBL2046268 (Eur J Med Chem, 2012).
Active and inactive are the calls of the source. The rule behind the calls is not given here. *1 amine or outer side, *2 acyl side, *3 side chain or, on linkers, in order; H or OH if unused. Where a SMILES comes first, the peptide text is derived from it. Bridges are numbered along the chain shown (N, C = ends). Roman numbers before positions name the chains, in order. [ ]: non-standard residue; d: D form. Actinocin(1to9) = Cc1c2oc3c(C)ccc(C(=O)[*:2])c3nc-2c(C(=O)[*:1])c(N)c1=O; NMeV = CN[C@H](C(=O)O)C(C)C; Sar = CNCC(=O)O

Assays:
HeLa [1] = assay: Cytotoxicity against human HeLa cells assessed as cell viability after 48 hrs by MTT assay; format: functional, cell-based
A549 [2] = assay: Cytotoxicity against human A549 cells assessed as cell viability after 48 hrs by MTT assay; format: functional, cell-based; settings: A549, 48 h
HeLa [3] = assay: Cytotoxicity against human HeLa cells assessed as cell viability after 72 hrs by MTT assay; format: functional, cell-based
A549 [4] = assay: Cytotoxicity against human A549 cells assessed as cell viability after 72 hrs by MTT assay; format: functional, cell-based; settings: A549, 72 h
MCF7 [5] = assay: Cytotoxicity against human MCF7 cells assessed as cell viability after 48 hrs by MTT assay; format: functional, cell-based; settings: MCF7, 48 h
MCF7 [6] = assay: Cytotoxicity against human MCF7 cells assessed as cell viability after 72 hrs by MTT assay; format: functional, cell-based; settings: MCF7, 72 h
Vero [7] = assay: Cytotoxicity against african green monkey Vero cells assessed as cell viability after 48 hrs by MTT assay; format: cell-based; settings: Chlorocebus sabaeus
Vero [8] = assay: Cytotoxicity against african green monkey Vero cells assessed as cell viability after 72 hrs by MTT assay; format: cell-based; settings: Chlorocebus sabaeus
Vero [9] = assay: Selectivity index, ratio of IC50 for african green monkey Vero cells to IC50 for human MCF7 cells after 48 hrs
HeLa [10] = assay: Induction of apoptosis in human HeLa cells assessed as DNA fragmentation at 16 uM after 48 hrs by agarose gel electrophoresis; format: functional, cell-based
HeLa [11] = assay: Induction of apoptosis in human HeLa cells assessed as DNA fragmentation at 16 to 32 uM after 24 hrs by agarose gel electrophoresis; format: functional, cell-based
HeLa [12] = assay: Induction of apoptosis in human HeLa cells assessed as DNA fragmentation at 4 to 32 uM after 12 hrs by agarose gel electrophoresis; format: functional, cell-based
HeLa [13] = assay: Induction of apoptosis in human HeLa cells assessed as chromatin condensation at 8 uM after 12 hrs using Hoechst 33342 staining by fluorescence microscopic analysis; format: functional, cell-based
HeLa [14] = assay: Induction of apoptosis in human HeLa cells assessed as formation of apoptotic bodies at 8 uM after 12 hrs using Hoechst 33342 staining by fluorescence microscopic analysis; format: functional, cell-based
HeLa [15] = assay: Increase in apoptosis in human HeLa cells at 8 uM after 12 hrs using Hoechst 33342 staining by fluorescence microscopic analysis relative to control; format: functional
Caspase-3 (Homo sapiens) [16] = target: T1, Caspase-3 (Homo sapiens) (UniProt P42574); assay: Induction of caspase 3 activation in human HeLa cells using Ac-DEVD-pNA after 4 hrs by Bradford assay; format: cell-based
T1 sequence (whole entry): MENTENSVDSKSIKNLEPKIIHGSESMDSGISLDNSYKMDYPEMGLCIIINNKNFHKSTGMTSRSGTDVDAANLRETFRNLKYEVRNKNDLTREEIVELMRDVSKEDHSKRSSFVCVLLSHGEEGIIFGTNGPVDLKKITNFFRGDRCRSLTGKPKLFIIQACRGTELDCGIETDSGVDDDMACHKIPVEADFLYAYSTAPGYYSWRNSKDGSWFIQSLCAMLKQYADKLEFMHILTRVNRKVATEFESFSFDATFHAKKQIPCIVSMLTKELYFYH

Caspase-3 (Homo sapiens) [17] = target: T1, Caspase-3 (Homo sapiens); assay: Induction of caspase 3 activation in human HeLa cells using Ac-DEVD-pNA at 4 uM after 4 hrs by Bradford assay; format: cell-based
Caspase-3 (Homo sapiens) [18] = target: T1, Caspase-3 (Homo sapiens); assay: Induction of caspase 3 activation in human HeLa cells using Ac-DEVD-pNA at 8 uM after 4 hrs by Bradford assay; format: cell-based
HeLa [19] = assay: Induction of apoptosis in human HeLa cells assessed as phosphatidylserine externalization at 2 to 16 uM using annexin/PI staining by fluorescence microscopy; format: functional, cell-based; settings: TDE = time-dependent effect
HeLa [20] = assay: Induction of apoptosis in human HeLa cells assessed as necrotic cells at 2 to 16 uM using annexin/PI staining by fluorescence microscopy; format: functional, cell-based; settings: TDE = time-dependent effect
HeLa [21] = assay: Induction of apoptosis in human HeLa cells assessed as early apoptotic cells at 2 to 4 uM up to 4 hrs using annexin/PI staining by fluorescence microscopy; format: functional, cell-based
HeLa [22] = assay: Induction of apoptosis in human HeLa cells assessed as late apoptotic cells at 2 to 4 uM up to 4 hrs using annexin/PI staining by fluorescence microscopy; format: functional, cell-based
HeLa [23] = assay: Induction of apoptosis in human HeLa cells assessed as phosphatidylserine externalization after 0.5 to 4 hrs using annexin/PI staining by fluorescence microscopy; format: functional, cell-based
HeLa [24] = assay: Induction of apoptosis in human HeLa cells assessed as necrotic cells after 0.5 to 4 hrs using annexin/PI staining by fluorescence microscopy; format: functional, cell-based
HeLa [25] = assay: Induction of apoptosis in human HeLa cells assessed as DNA fragmentation at 2 uM after 48 hrs by agarose gel electrophoresis; format: functional, cell-based
Caspase-3 (Homo sapiens) [26] = target: T1, Caspase-3 (Homo sapiens); assay: Induction of caspase 3 activation in human HeLa cells using Ac-DEVD-pNA at 2 uM after 4 hrs by Bradford assay; format: cell-based
HeLa [27] = assay: Induction of apoptosis in human HeLa cells at 12 uM after 2 to 4 hrs using annexin/PI staining by fluorescence microscopy; format: functional, cell-based
HeLa [28] = assay: Induction of apoptosis in human HeLa cells assessed as increase in sub-G1 DNA content at 24 uM after 12 hrs using Propidium iodide staining by flow cytometry; format: functional, cell-based
Caspase-3 (Homo sapiens) [29] = target: T1, Caspase-3 (Homo sapiens); assay: Induction of caspase 3 activation in human HeLa cells using Ac-DEVD-pNA at 24 uM after 8 hrs by Bradford assay; format: cell-based
HeLa [30] = assay: Induction of apoptosis in human HeLa cells at 8 uM after 2 to 4 hrs using annexin/PI staining by fluorescence microscopy; format: functional, cell-based
HeLa [31] = assay: Induction of apoptosis in human HeLa cells at 16 uM after 2 to 4 hrs using annexin/PI staining by fluorescence microscopy; format: functional, cell-based
Caspase-3 (Homo sapiens) [32] = target: T1, Caspase-3 (Homo sapiens); assay: Increase in caspase 3 activation in human HeLa cells using Ac-DEVD-pNA at 12 uM after 4 hrs by Bradford assay relative to control; format: cell-based
Caspase-3 (Homo sapiens) [33] = target: T1, Caspase-3 (Homo sapiens); assay: Increase in caspase 3 activation in human HeLa cells using Ac-DEVD-pNA at 32 uM after 4 hrs by Bradford assay relative to control; format: cell-based
HeLa [34] = assay: Induction of apoptosis in human HeLa cells assessed as necrotic cells at 8 uM after 1 to 2 hrs using annexin/PI staining by fluorescence microscopy; format: functional, cell-based
HeLa [35] = assay: Induction of apoptosis in human HeLa cells assessed as DNA fragmentation by agarose gel electrophoresis; format: functional, cell-based
HeLa [36] = assay: Induction of apoptosis in human HeLa cells assessed as phosphatidylserine externalization at 1 uM using annexin/PI staining by fluorescence microscopy; format: functional, cell-based; settings: TDE = time-dependent effect
HeLa [37] = assay: Induction of apoptosis in human HeLa cells assessed as necrotic cells at 1 uM using annexin/PI staining by fluorescence microscopy; format: functional, cell-based; settings: TDE = time-dependent effect

Compound	IC50 (HeLa [1])	IC50 (A549 [2])	IC50 (HeLa [3])	IC50 (A549 [4])	IC50 (MCF7 [5])	IC50 (MCF7 [6])	IC50 (Vero [7])	IC50 (Vero [8])	Ratio IC50 (Vero [9])	Activity (HeLa [10])	Activity (HeLa [11])	Activity (HeLa [12])	Activity (HeLa [13])	Activity (HeLa [14])	Activity (Caspase-3 (Homo sapiens) [16])	Activity (Caspase-3 (Homo sapiens) [17])	Activity (Caspase-3 (Homo sapiens) [18])	Activity (HeLa [19])	Activity (HeLa [23])	Activity (HeLa [24])	further results
CC1=C(C)C(=O)O[C@@H]([C@@H](C)[C@H]2CC=C3[C@@H]4C[C@H]5O[C@]56[C@@H](O)C=CC(=O)[C@]6(C)[C@H]4CC[C@@]32C)C1	3500 nM	2600 nM	2900 nM	2100 nM	1300 nM	300 nM	6.2 µM	1200 nM	1.7	inactive	inactive	inactive	Active	Active	Dose-dependent effect	inactive	inactive	tde	Dose-dependent effect	Dose-dependent effect	Activity (HeLa [15]): 27%; Activity (HeLa [20]): tde; Activity (HeLa [21]): Active; Activity (HeLa [22]): Active
CN[C@@H]1C[C@H]2O[C@@](C)([C@@H]1OC)n1c3ccccc3c3c4c(c5c6ccccc6n2c5c31)C(=O)NC4	–	–	–	–	–	–	–	–	–	–	–	–	–	–	–	–	–	–	–	–	Activity (HeLa [25]): Active; Activity (Caspase-3 (Homo sapiens) [26]): Active
CC1=C(CO[Si](C)(C)C(C)(C)C)C(=O)O[C@@H]([C@@H](C)[C@H]2CC[C@H]3[C@@H]4C[C@H]5O[C@]56C(=O)C=CC(=O)[C@]6(C)[C@H]4CC[C@]23C)C1	1700 nM	5300 nM	2100 nM	2900 nM	500 nM	200 nM	3.1 µM	4000 nM	6.2	inactive	inactive	inactive	Active	Active	Dose-dependent effect	inactive	inactive	tde	Dose-dependent effect	Dose-dependent effect	Activity (HeLa [27]): Active; Activity (HeLa [28]): Active; Activity (Caspase-3 (Homo sapiens) [29]): Active; Activity (HeLa [20]): tde; Activity (HeLa [30]): Active; Activity (HeLa [31]): Active
CC1=C(CO)C(=O)O[C@@H]([C@@H](C)C2=CC[C@H]3[C@@H]4C[C@H]5O[C@]56[C@@H](O)C=CC(=O)[C@]6(C)[C@H]4CC[C@]23C)C1 [WITHARISTATIN]	3500 nM	4200 nM	2700 nM	2300 nM	1200 nM	300 nM	3.4 µM	2600 nM	2.8	inactive	inactive	inactive	Active	Active	Dose-dependent effect	inactive	inactive	tde	Dose-dependent effect	Dose-dependent effect	Activity (HeLa [28]): Active; fold change (FC) (Caspase-3 (Homo sapiens) [32]): 1; Activity (HeLa [20]): tde; Activity (HeLa [21]): Active
CC1=C(CO[Si](C)(C)C(C)(C)C)C(=O)O[C@@H]([C@@H](C)[C@H]2CC[C@H]3[C@@H]4C[C@H]5O[C@]56[C@@H](O)C=CC(=O)[C@]6(C)[C@H]4CC[C@]23C)C1	900 nM	1500 nM	1000 nM	1500 nM	700 nM	700 nM	0.7 µM	900 nM	1	inactive	inactive	inactive	Active	Active	Dose-dependent effect	inactive	inactive	tde	Dose-dependent effect	Dose-dependent effect	Activity (HeLa [28]): Active; Activity (Caspase-3 (Homo sapiens) [33]): inactive; Activity (HeLa [20]): tde; Activity (HeLa [34]): inactive
Cc1c2oc3c(C)ccc(C(=O)N[C@@H]4C(=O)N[C@H](C(C)C)C(=O)N5CCC[C@H]5C(=O)N(C)CC(=O)N(C)[C@@H](C(C)C)C(=O)O[C@@H]4C)c3nc-2c(C(=O)N[C@@H]2C(=O)N[C@H](C(C)C)C(=O)N3CCC[C@H]3C(=O)N(C)CC(=O)N(C)[C@@H](C(C)C)C(=O)O[C@@H]2C)c(N)c1=O [DACTINOMYCIN] (I: T[dV]P[Sar][NMeV] / II: T[dV]P[Sar][NMeV]; ester I:1-I:C, II:1-II:C; linker I:N-II:N via Actinocin(1to9))	1.1 nM	7.2 nM	–	–	24 nM	–	–	–	3	–	–	–	–	–	–	–	–	–	Dose-dependent effect	Dose-dependent effect	Activity (HeLa [35]): Active; Activity (HeLa [36]): tde; Activity (HeLa [37]): tde
